Test results published in patent US10357494B2, “Combination therapy comprising varlitinib and an anticancer agent” (ASLAN Pharmaceuticals PTE LTD, priority 2015, dated 2019).

What was measured:
Format in all cases: in vivo, human
[1] = test system: gastric cancer; assay: Treatment of gastric cancer patients with Varlitinib 400 mg bi-daily and cisplatin/capecitabine chemotherapy; conditions: for tolerability / dose limiting toxicity: 400 mg bi-daily with cisplatin and capecitabine; for dose limiting toxicity: first two treatment cycles
Method: Example 1 Treatment of Gastric Cancer with Valitinib 400 mg Bi-Daily Orally and Cisplatin/Capecitabine Combination Chemotherapy
person one with Her2 positive (3+) stage IV gastric cancer had progressive disease in the form of 2 target lesions following: • first line treatment with cisplatin and Xeloda® (capecitabine)—4 cycles, • second line treatment with the experimental drug TDM1 (an antibody drug conjugate comprising Herceptin®)—9 cycles, • third line treatment with experimental drug LJM716 (a Her3 monoclonal antibody) and Herceptin®.
After treatment cycle 4 with ASLAN001 400 mg bi-daily, cisplatin and capecitabine, see FIG. 1. […] The cisplatin and capecitabine regime was cisplatin 80 mg/m^2 IV infusion and capecitabine 1000 mg/m^2 orally twice daily for 14 days every 3 weeks.
person two with gastric cancer (4 target lesions) was given first line treatment of Valitinib 400 mg bi-daily, cisplatin and capecitabine. […] The cisplatin and capecitabine regime was cisplatin 80 mg/m^2 IV infusion and capecitabine 1000 mg/m^2 orally twice daily for 14 days every 3 weeks.

[2] = test system: stage IV cholangiocarcinoma; assay: Treatment of cholangiocarcinoma patients with Varlitinib bi-daily and cisplatin/capecitabine chemotherapy; conditions: person
Method: Example 2 Treatment of Cholangiocarcinoma with Varlitinib 400 mg Bi-Daily Orally and Cisplatin/Capecitabine Combination Chemotherapy A person with stage IV cholangiocarcinoma (3 lesions) had progressive disease following treatment with: • radiotherapy, and • gemcitabine (Gemzar®) and cisplatin—6 months. […] The cisplatin and capecitabine regime was cisplatin 80 mg/m^2 IV infusion and capecitabine 1000 mg/m^2 orally twice daily for 14 days every 3 weeks. Example 3 Treatment of Cholangiocarcinoma with Varlitinib 500 mg Bi-Daily Orally and Cisplatin/Capecitabine Combination Chemotherapy A person with stage IV cholangiocarcinoma had progressive disease following treatment with radiotherapy and bi-weekly 5-FU. […] The cisplatin and capecitabine regime was cisplatin 80 mg/m^2 IV infusion and capecitabine 1000 mg/m^2 orally twice daily for 14 days every 3 weeks.

[3] = test system: stage IV sigmoid colorectal cancer; assay: Treatment of stage IV sigmoid colorectal cancer patient with Varlitinib 300 mg BID and oxaliplatin/capecitabine; conditions: person, stage IV sigmoid colorectal cancer with metastasis, 300 mg bi-daily
Method: Example 4 Treatment of Stage IV Sigmoid Coloreactal Cancer with Varlitinib 300 mg BID Oxaliplatin/Capecitabine
A person with stage IV sigmoid colorectal cancer with metastasis to liver, lungs and lymph node.
The prior treatments included: • Anterior resection with right hemi-hepatetomy and cholecystecomy • XELOX (PD), XELIRI (PR), Irrinotecan & Cetuximab (SD) • Xeloda and Avastin (SD), Bayer PTEFb-CDK9 inhibitor (PD)
The treatment per 3 weeks cycle was 300 mg ASLAN001 orally bi-daily, oxaliplatin 130 mg/m^2 IV infusion (Day 1) and capecitabine 850 mg/m^2 (Day 1-14) until Cycle 6, then from Cycle 7+ onwards, Varlitinib 300 mg b-daily as monotherapy per 4 week cycle.

[4] = test system: stage IV Cholangiocarcinoma and metastatic lymphadenopathy; assay: Treatment of stage IV cholangiocarcinoma and metastatic lymphadenopathy patient with Varlitinib and cisplatin/5FU; conditions: person, first line, 300 mg BID Varlitinib combined with Cis/5-FU
Method: Example 5 Treatment of Stage IV Cholangiocarcinoma and Metastatic Lymphadenopathy with Varlitinib 400 mg Bi-Daily Orally and Cisplatin/5FU Combination Chemotherapy A person with stage IV Cholangiocarcinoma and metastatic lymphadenopathy diagnosed in January 2016, no prior surgery or treatment was give first line treatment of 300 mg BID Varlitinib combined with Cis/5-FU, 28-day cycle.

[5] = test system: intrahepatic bile duct cholangiocarcinoma; assay: Treatment of intrahepatic bile duct cholangiocarcinoma patient with Varlitinib and FOLFOX; conditions: person, progressive on gemcitabine and cisplatin; 9 cycles Varlitinib 400 mg reduced to 300 mg BID and FOLFOX, then 7 cycles monotherapy
Method: Example 6 Treatment of the Intrahepatic Bile Duct Cholangiocarcinoma with 300 mg Valitinib and FOLFOX A person diagnosed in 2013 with intrahepatic bile duct cholangiocarcinoma, had received surgery in the form of left hemihepatectomy in 15 Jul. 2013. Prior therapies were gemcitabine and cisplatin 14 Aug. 2013 with last dose 8 Jan. 2014 and repeated between 13 May 2015 and 1 Jul. 2015. With this treatment the status was progressive disease. The patient was give 9 cycles combination Varlitinib 400 mg reduced to 300 mg BID and FOLFOX. This was followed with 7 cycles of Valitinib monotherapy.

[6] = test system: bladder cancer; assay: Treatment of bladder cancer patient with 300 mg Valitinib and FOLFOX; conditions: person
Method: Example 7 Treatment of the Bladder Cancer with 300 mg Valitinib and FOLFOX A person was diagnosed with bladder cancer 2014. They received radical cystoprostatetomy and prior therapy with Cisplatin and radiotherapy (pelvis) on 20 Feb. 2014; gemcitabline and cisplatin on 10 Apr. 2015 with last dose on 8 May 2015. The patient received 9 cycles of 300 mg Valitinib BID and FOLFOX and 5 cycles of Varlitinib 300 mg monotherapy. The Valitinib in the combination therapy interruption from 21 to 27 Sep. 2015; 21 Oct. to 23 Oct.

[7] = test system: tumour; assay: Clinical data summary as of June 2016, Varlitinib combination arms
Text: As of June 2016 the following clinical data summary: […]

[8] = test system: gastric tumours co-expressing EGFR and HER2 or HER2 amplified; assay: Phase I monotherapy trial in gastric cancer patients, tumour biopsies analysed by immunohistochemistry; conditions: monotherapy 500 mg orally BID for 28 days, 23 patients; biopsies before and after treatment
Method: (R)—N4-[3-Chloro-4-(thiazol-2-ylmethoxy)-phenyl]-N6-(4-methyl-4,5,-dihydro-oxazol-2-yl)-quinazoline-4,6-diamine (Varlitinib Example 52 disclosed in WO2005/016346), is a small-molecule pan-HER inhibitor. It has been tested as a monotherapy in phase I clinical trials of gastric cancer patients. 23 patients, who had previously failed on one or more rounds of chemotherapy, and where eligible for trastuzumab, each received 500 mg of Varlitinib orally twice daily (BID) as monotherapy for 28 days. Tumour biopsies taken before and after treatment were analysed using immunohistochemistry.

[9] = 9 cycles 300 mg BID and FOLFOX, then 5 cycles 300 mg monotherapy

## C[C@@H]1COC(Nc2ccc3ncnc(Nc4ccc(OCc5nccs5)c(Cl)c4)c3c2)=N1 [Varlitinib, (R)—N4-[3-Chloro-4-(thiazol-2-ylmethoxy)-phenyl]-N6-(4-methyl-4,5,-dihydro-oxazol-2-yl)-quinazoline-4,6-diamine]
[1]; person one, Her2 positive (3+) stage IV gastric cancer, progressive after three prior lines, Varlitinib 400 mg bi-daily, cisplatin and capecitabine
  response after treatment cycle 4: 29%
[1]; person one, gastric cancer
  tolerability: well tolerated
  dose limiting toxicity: No dose limiting toxicity was observed
[1]; person one, stage IV gastric cancer, after cycle 4 of Varlitinib 400 mg bi-daily, cisplatin and capecitabine
  disease status category: stable disease
[1]; person two, gastric cancer (4 target lesions), first line, 400 mg bi-daily, cisplatin and capecitabine
  response after cycle 4: 41%
[1]; person two, gastric cancer
  tolerability: well tolerated
  dose limiting toxicity: No dose limiting toxicity was observed
[1]; person two, gastric cancer, due to development of a new bone lesion
  disease status designation: progression disease
[2]; cholangiocarcinoma, 400 mg bi-daily with cisplatin and capecitabine
  tolerability: well tolerated
[2]; cholangiocarcinoma, first two treatment cycles, 400 mg bi-daily with cisplatin and capecitabine
  dose limiting toxicity: No dose limiting toxicity was observed
[2]; stage IV cholangiocarcinoma, progressive after radiotherapy and 5-FU, Varlitinib orally 500 mg bi-daily, cisplatin and capecitabine
  response after treatment cycle 2: 4%
[3]
  response after 2 cycles (figure): 335
  response category after 2 cycles: partial response
[4]
  current disease status: stable disease
[4]; 28-day cycle, 5 Mar. 2016
  tumor reduction at first response (C2): 16%
[4]; 28-day cycle, 17 May 2016
  tumor reduction at last response (C4): 13%
[5]
  patient status: partial response
[6]; 300 mg BID and FOLFOX combination therapy
  adverse event leading to treatment interruption: G2 weight loss
[6]; [9]
  best % tumour change: −4%
  patient status: stable disease
[7]; Combo with cis/5-FU, 300 mg Varlitinib, 6 patients
  Best response (% change): −21%
[7]; Combo with cis/5-FU, 400 mg Varlitinib, 7 patients
  Best response (% change): −47%
[7]; Combo with cis/cap, 400 mg Varlitinib, 6 patients
  Best response (% change): −87%
[7]; Combo with cis/cap, 500 mg Varlitinib, 4 patients
  Best response (% change): −4%
[8]
  signs of clinical activity: cell survival and proliferation: reduction in cell survival and cell proliferation
  signs of clinical activity: signalling pathways: downregulation of signalling pathways responsible for cell proliferation
